Experimental data published in PubChem BioAssay AID624129 (Sanford-Burnham Center for Chemical Genomics, 2012).
Active and inactive are the calls of the source. The rule behind the calls is not given here.

Target: C-X-C chemokine receptor type 6 (Homo sapiens) (UniProt O00574)
Assay: CXCR6 receptor antagonists, dose response, cell-based, beta-arrestin, DiscoveRx, APJ panel, uHTS hits (AID 624129)
Conditions: CXCR6 beta-arrestin (DiscoveRx) antagonist cell assay; for outcome: CXCR6, dose range 1; for inhibition: CXCR6, run 2, dose range 1, at 79 µM (top of the series)
[1] = CXCR6, dose range 1, mean IC50 across replicates

Chain of C-X-C chemokine receptor type 6 (Homo sapiens) (O00574 whole entry, looked up): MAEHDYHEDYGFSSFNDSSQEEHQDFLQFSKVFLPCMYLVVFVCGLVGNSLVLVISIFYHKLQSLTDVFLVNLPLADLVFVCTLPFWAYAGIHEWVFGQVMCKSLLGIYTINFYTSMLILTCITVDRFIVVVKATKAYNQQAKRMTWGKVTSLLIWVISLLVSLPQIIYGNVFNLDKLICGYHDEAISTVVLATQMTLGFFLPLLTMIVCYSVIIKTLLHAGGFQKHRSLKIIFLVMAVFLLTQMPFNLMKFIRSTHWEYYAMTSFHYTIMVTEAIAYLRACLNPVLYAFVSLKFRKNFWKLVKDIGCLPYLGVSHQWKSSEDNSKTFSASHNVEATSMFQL

Compound	outcome	IC50 [1] [µM]	IC50 (CXCR6, run 1, dose range 2) [µM]	inhibition [%]	IC50 (CXCR6, run 2, dose range 2) [µM]
COc1ccc(-c2c(C(=O)c3ccccc3)[nH]c(N)c2C(=O)c2ccc(Br)cc2)cc1OC	inactive	17.4	16.4	86.6	18.4
Cc1ccc(OCC(=O)NNC(=S)NC(=O)C2CC2)c(C)c1	inactive	14.2	10.3	72.3	18.1
Nc1ccccc1C#CC(=O)c1ccccc1	inactive	14.8	14.2	111	15.3
COc1cc(N2C(=O)C=CC2=O)ccc1N1C(=O)C=CC1=O	inactive	15.8	12.7	112	18.9
COC(=O)c1ccc(CCc2cc(O)c(Br)cc2O)cc1	inactive	43.1	19.5	111	66.8
O=C1CC(Sc2nnnn2-c2ccccc2)C(=O)N1c1cccc(Cl)c1 (stereo not given)	inactive	11.9	11.7	112	12.2
NC(=S)NN=C1c2cc(Cl)ccc2-c2c1cc(Cl)cc2[N+](=O)[O-]	inactive	14.1	11.7	93.3	16.4
Cc1ccccc1NC(=S)NNc1ncc(C(F)(F)F)cc1Cl	inactive	15	16.4	83.5	13.7
O=C(NC(=S)Nc1ccccc1O)c1cncc(Br)c1	inactive	28.4	24.7	70.2	32
COC(=O)c1ccc(C)c(-n2c(=O)n(Cc3ccccc3)c(=O)c3[nH]cnc32)c1	inactive	12.9	11.6	73	14.1
Cc1[nH]n2c(=O)cc(-c3ccc([N+](=O)[O-])cc3)nc2c1-c1ccccc1	inactive	14.6	13.9	81.6	15.3
CN(c1ccccc1)c1ccc(/C=C/[N+](=O)[O-])cc1	inactive	11.4	10.3	114	12.5
CC(=O)OC1CCC2(C)C(CCC3C4CC=C(C(C)=O)C4(C)OC(=O)CC32)C1 (stereo not given)	inactive	24.2	22.6	96.2	25.7
CC1=C(CO)C(=O)OC([C@@H](C)C2CC[C@H]3C4C[C@H]5O[C@]56[C@@H](O)C=CC(=O)[C@]6(C)C4CC[C@]23C)C1 (stereo not given in full)	inactive	14	12.2	112	15.8
CCC1=NN(C(=O)c2ccc([N+](=O)[O-])cc2)C(O)(c2ccccc2)C1 (stereo not given)	inactive	44.8	25.2	91.7	64.4
COc1cc(/C=C/C(O)=C/C(=O)/C=C/c2ccc(O)cc2)ccc1O	inactive	39.4	40.1	98.4	38.7
O=C(Nc1ccc(Oc2ccccc2)cc1)c1csc([C@@H]2O[C@H](CO)[C@H](O)[C@H](O)[C@H]2O)n1	inactive	40.1	40.1	57.4	> 79
CCCCC(=O)NC(=S)NNC(=O)c1ccc(OC)cc1	inactive	11.5	10.2	98	12.9
CCOc1cc(/C=C2\N=C(SC)SC2=O)cc([N+](=O)[O-])c1OC(C)=O	inactive	28.3	27.7	98.2	28.8
COc1ccc(-n2nnnc2S(=O)(=O)CC(=O)N2CCCCC2)cc1	inactive	19	19.3	97.5	18.8
N=C1SCC(=O)N1c1ncc(Cc2ccccc2Cl)s1	inactive	12	10.5	78.1	13.5
CC(=O)N1N=C(c2cccs2)CC1c1cccc([N+](=O)[O-])c1 (stereo not given)	inactive	23.2	20.8	73.7	25.5
Cc1ccc(-n2c(SCCN)nnc2-c2cccc(C)c2)cc1	inactive	66.9	66.8	76.2	67
Nc1nc(N)c2c(ccc3c2ccn3Cc2cccc([N+](=O)[O-])c2)n1	inactive	16.9	15.8	110	18

Compound	outcome	IC50 [1] [µM]	IC50 (CXCR6, run 1, dose range 2) [µM]	inhibition [%]	IC50 (CXCR6, run 2, dose range 2) [µM]
O=C(NNc1ccc([N+](=O)[O-])cc1[N+](=O)[O-])c1ccco1	inactive	30.2	30.4	86.8	29.9
O=[N+]([O-])c1ccc(N/N=C/c2sc(N3CCOCC3)nc2-c2ccccc2)c(S(=O)(=O)Nc2ccc(Cl)cc2)c1	inactive	55.1	72.8	99.6	37.3
CCCOc1ccc(CN(CCC#N)C(=S)NC(=O)c2ccccc2)cc1	inactive	20	10.4	68.9	29.6
COc1ccc(/C=C(/C(=O)c2cccs2)N2C=CC=CC2=C(C#N)C#N)cc1	inactive	19.9	20.3	109	19.5
CC(Oc1ccccc1)C(=O)Nc1nc(-c2ccccn2)cs1 (stereo not given)	inactive	14.3	11.4	97.6	17.3
Cc1ccc(CS(=O)(=O)c2ncc(Cl)c(C(=O)Nc3ccc(OC(F)F)cc3)n2)cc1	inactive	12.6	12.6	105	> 79
O=C(Nc1ccccc1)c1ccc(Nc2c([N+](=O)[O-])cc([N+](=O)[O-])c3ccccc23)cc1	inactive	44.4	65.1	98.6	23.6
C=C1C(=O)[C@]23C[C@H]1CCC2[C@@]1(C)C(C[C@@H]3O)[C@](C)(C(=O)OC)CC[C@@H]1O (stereo not given in full)	inactive	11.5	11.6	109	11.4
Cc1cccc(NC(=S)NNc2ncc(C(F)(F)F)cc2Cl)c1	inactive	20.5	26.4	109	14.7
Cc1ccc(C(=O)NNC(=S)NC(=O)c2ccccc2)cc1	inactive	20.1	18	84.4	22.2
Cc1ccc(NC(=O)c2nc(S(=O)(=O)Cc3ccccc3)ncc2Cl)cc1	inactive	15.3	15.2	111	15.5
Cc1cc(C)cc(N2C(=O)CC(Sc3nnnn3-c3ccccc3)C2=O)c1 (stereo not given)	inactive	14.5	13.9	113	15.2
CN(C)CCCN(C(=O)CCS(=O)(=O)c1ccccc1)c1nc2cc3c(cc2s1)OCO3	inactive	14.9	14.3	110	15.5
FC(F)(F)c1cnc(NNC(=S)Nc2ccccc2)c(Cl)c1	inactive	14.9	12	112	17.8
CCCSc1cc(NCCOC(=O)CCC)c([N+](=O)[O-])c2nonc12	inactive	17.7	17.6	112	17.9
CCOC(=O)C1CCCN(c2c(C(=O)c3ccccc3)cnc3ccc(OC)cc23)C1 (stereo not given)	inactive	14.4	17.9	99.5	10.9
CCc1nnc(NS(=O)(=O)c2ccc(Nc3ccc([N+](=O)[O-])c4nonc34)cc2)s1	inactive	34.1	29.8	92.2	38.4
COC(=O)c1ccccc1-c1c2ccc(=N)cc-2oc2cc(N)ccc12	inactive	17.8	17.1	88.3	18.6
COC(=O)C1=C(C(=O)OC)SC2(S1)C(C(=O)OC)=C(C(=O)OC)Sc1c2ssc1=O	inactive	23.2	20.3	112	26
CC(C)[C@H](NC(=O)OC(C)(C)C)c1nnc(S(=O)(=O)Cc2c(F)cccc2Cl)o1	inactive	13.3	12.9	111	13.8
COc1cc(/C=C/[N+](=O)[O-])ccc1OC(=O)c1cc2ccccc2oc1=O	inactive	11.6	12.1	112	11.2
Cc1ccc(P(=O)(c2ccc(C)cc2)[C@@H](NC(c2ccccc2)c2ccccc2)c2ccccc2)cc1	inactive	19.6	17	82.4	22.1
COC(=O)c1cc(CSc2nc3ccc(C)cc3[nH]2)oc1C	inactive	32.9	28.7	66.8	37.1
O=C1C=CC(=O)N1CCCCCCCCCCN1C(=O)C=CC1=O	inactive	16.5	15.1	111	18
